Patent US20250325610A1, “Compositions Containing Cannabis and Hericium Extracts for the Improvement of Mental Health and Treatment of CNS Disorders” (DrinkBrez, LLC, priority 2024, published 2025)

System: theta power
Test: EEG study on theta power modulation by THC and Lion's Mane extract (randomized, double-blind, crossover)
Format: in vivo, human
Details: for global theta power change: 16-node EEG, normalized theta power
Experimental: Participants: 10 healthy adults (18-45 years) in a randomized, double-blind, crossover trial.
Treatments: Baseline (placebo), Lion's Mane (2.2 g), THC (5 mg), THC+Lion's Mane.
Administration: Nanoemulsion beverages for rapid absorption.
EEG recordings: 16-node headset measured theta power at 0 min (baseline), 15 min, and 30 min.
Normalized theta power analyzed via mixed-effects ANOVA.
Topographic mapping for spatial changes.

CCCCCc1cc(O)c2c(c1)OC(C)(C)[C@@H]1CCC(C)=C[C@@H]21 [THC, Δ9-tetrahydrocannabinol]
global theta power change (15 min after nanoemulsion beverage): −8.9% | theta power change, frontal nodes F3, F7 and FC5 (15 minutes): −14.6% | global theta power change (30 min after nanoemulsion beverage): 19.4% | theta power change, frontal nodes (30 minutes): 33.2% | theta power change, parietal (P3, P4) and occipital (O1, O2) nodes (nodes P3, P4, O1, O2): 4-8%
